# Source: patent US9540427B2, “Peptide-based stat inhibitor” (The United States of America, as represented by the …, priority 2007, dated 2017)
# Legend:
# [1] = tested on: normal mouse embryonic fibroblasts (MEFs); test: Survival of normal mouse embryonic fibroblasts; format: cell-based; settings: normal MEFs (data not shown)
# Text: (§1) Furthermore, survival of normal mouse embryonic fibroblasts (MEFs) and STAT3-deficient MEFs was not affected by treatment with STAT3-Hel2A-2 (data not shown). […] This observation potentially provides a basis for an enhanced therapeutic ratio, based on differential inhibitor effects
# [2] = tested on: normal mammary epithelial cells MCF-10A; test: MTT assay of growth and viability, MCF-10A; format: cell-based; settings: escalating doses
# Method: Three breast cancer cell lines (MDA-MB-231, T47D, and MDA-MB-435) and normal breast epithelial (MCF-10A) were treated with escalating doses of STAT3-Hel2A-2 (SEQ ID NO: 20). Cell proliferation and cell death were estimated by MTT assay.
# [3] = tested on: STAT3-deficient MEFs; test: Survival of STAT3-deficient MEFs; format: cell-based, mouse; settings: STAT3-deficient MEFs (data not shown)
# Text: as §1
smiles,measurement,setting,value
CCCC[C@H](NC(=O)[C@H](CCCNC(=N)N)NC(=O)[C@H](CCCNC(=N)N)NC(=O)[C@H](CC(N)=O)NC(=O)[C@@H]1CCCN1C(=O)[C@H](Cc1ccccc1)NC(=O)[C@H](Cc1c[nH]c2ccccc12)NC(=O)[C@@H](NC(=O)[C@H](CCCCN)NC(=O)[C@@H](NC(=O)[C@H](CCC(N)=O)NC(=O)[C@H](CCCNC(=N)N)NC(=O)[C@H](Cc1ccc(O)cc1)NC(=O)[C@H](CC(C)C)NC(=O)[C@H](CCCCN)NC(=O)[C@H](Cc1c[nH]cn1)NC(=O)[C@H](CC(C)C)NC(=O)[C@H](CCC(N)=O)NC(=O)[C@H](CCC(=O)O)NC(=O)[C@H](CC(C)C)NC(=O)[C@H](Cc1ccc(O)cc1)NC(=O)[C@H](CCCNC(=N)N)NC(=O)[C@@H](NC(=O)[C@H](CC(=O)O)NC(=O)[C@@H](N)CC(C)C)[C@@H](C)O)[C@@H](C)CC)[C@@H](C)CC)C(=O)N[C@@H](CCCCN)C(=O)N[C@@H](Cc1c[nH]c2ccccc12)C(=O)N[C@@H](CCCCN)C(=O)N[C@@H](CCCCN)C(N)=O [Hel2A-2-Pen],Survival of normal cells,[1],not affected
same,Growth and viability of normal cells,[2],not altered significantly
same,Survival of STAT3-deficient cells,[3],not affected
